Assay results published in PMC5650142, “GPR40 partial agonists and AgoPAMs: Differentiating effects on glucose and hormonal secretions in the rodent” (PLoS ONE, 2017).
Values joined by “and” are separate entries in the source; they are usually repeats but may differ in a detail not shown here. Identical values can stand only once. Like-named read-outs stand apart in the source and are kept apart here.

Tests used:
human GPR40 [1] = target: T1, human GPR40 (Homo sapiens, UniProt O14842); assay: Human GPR40 IP1 accumulation assay; type: cell-based; parameters: expressed in transfected cells
T1 sequence (O14842 whole entry): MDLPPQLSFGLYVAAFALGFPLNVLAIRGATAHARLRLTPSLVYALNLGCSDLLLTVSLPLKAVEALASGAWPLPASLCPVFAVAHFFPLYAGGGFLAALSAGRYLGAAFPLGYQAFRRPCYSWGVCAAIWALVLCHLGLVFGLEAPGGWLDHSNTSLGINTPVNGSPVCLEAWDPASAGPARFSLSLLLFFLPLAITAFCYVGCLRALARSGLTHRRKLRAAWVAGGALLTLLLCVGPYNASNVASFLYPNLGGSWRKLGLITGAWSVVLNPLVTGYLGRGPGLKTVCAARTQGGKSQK
Description: (§1) Stable cell lines expressing human GPR40 (hGPR40/HEK293), mouse GPR40 (mGPR40/CHO-K1), and rat GPR40 (rGPR40/CHO-K1) were cultured in DMEM media supplemented with 10% FBS, glutamine, non-essential amino acids, and penicillin/streptomycin. hGPR40/HEK293 & mGPR40/CHO-K1 cell media was supplemented with […] G418 (Life Technologies), while rGPR40/CHO-K1 cells were grown in […] blasticidin plus […] hygromycin (Life Technologies). Cell stocks were maintained and grown in a sub-confluent state using standard cell culture procedures. The day before the experiment, the cells were harvested with non-enzymatic cell dissociation buffer and re-suspended in DMEM supplemented with 10% FBS, glutamine, non-essential amino acids, penicillin/streptomycin at 0.15, 0.2 and 0.3 million cells per ml for human, mouse, and rat GPR40, respectively. […] The seeded plates were incubated overnight at 37 C.
(§2) On the day of the experiment, the growth media was removed from the assay by gently patting the assay plates on an absorbent sheet and 10 μl of IP1 stimulation buffer (Cis Bio IP-one Tb HTRF kit) supplemented with 50 mM LiCl is added to each well. Test compounds dissolved in DMSO were serially diluted in ½ log increments starting from 2 mM or 0.2 mM and 50 nl of the compound dilution was acoustically added to each well (final starting concentration 10 μM or 1 μM). Plates were then incubated for 60 minutes at room temperature and 10 μl of detection buffer (prepared as described in the Tb kit) is added to each well. The plates are then incubated one additional hour at room temperature. […] For each assay, a standard curve plate in which IP1 is titrated is also included. […] The percent activity at each concentration of test compound is determined using 0% activation (basal activity) determined in those wells that contain DMSO alone, while 100% activity is determined in wells that contained a concentration of a partial allosteric agonist know to activate GPR40. The % activity is then plotted versus the concentration of test compound and the dose response curve fitted to a standard 4-parameter non-linear regression model using a custom in-house developed software package (Merck & Co., Inc., MRL, Kenilworth, NJ, USA). Maximal % activity and EC50 are then determined for each test compound.

mouse GPR40 = target: T2, mouse GPR40 (Mus musculus, UniProt Q76JU9); assay: Mouse GPR40 IP1 accumulation assay; type: cell-based
T2 construct: expressed in transfected cells; host or cells: CHO-K1 (methods)
T2 sequence (Q76JU9 whole entry): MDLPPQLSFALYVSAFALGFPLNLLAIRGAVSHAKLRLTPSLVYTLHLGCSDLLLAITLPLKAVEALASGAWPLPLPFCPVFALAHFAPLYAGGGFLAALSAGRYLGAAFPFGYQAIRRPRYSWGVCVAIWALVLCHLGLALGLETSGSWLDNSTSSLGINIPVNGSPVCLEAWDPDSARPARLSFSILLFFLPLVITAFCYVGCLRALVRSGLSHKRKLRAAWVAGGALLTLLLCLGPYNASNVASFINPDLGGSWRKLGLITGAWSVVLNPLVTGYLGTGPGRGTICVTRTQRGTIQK
Description: as §1, §2

rat GPR40 = target: T3, rat GPR40 (Rattus norvegicus, UniProt Q8K3T4); assay: Rat GPR40 IP1 accumulation assay; type: cell-based
T3 construct: expressed in transfected cells; host or cells: CHO-K1 (methods)
T3 sequence (Q8K3T4 whole entry): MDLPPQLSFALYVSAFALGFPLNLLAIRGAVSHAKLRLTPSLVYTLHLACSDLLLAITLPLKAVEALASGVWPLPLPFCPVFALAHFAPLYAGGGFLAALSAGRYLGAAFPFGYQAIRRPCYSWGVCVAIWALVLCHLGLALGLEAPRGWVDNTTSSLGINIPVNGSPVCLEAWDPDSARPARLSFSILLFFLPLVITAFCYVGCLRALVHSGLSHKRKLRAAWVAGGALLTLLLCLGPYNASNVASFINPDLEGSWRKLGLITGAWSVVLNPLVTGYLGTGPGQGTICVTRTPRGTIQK
Description: as §1, §2

human GPR40 [2] = target: T1, human GPR40; assay: GPR40 binding assay, partial agonist tracer [3H]L358; parameters: expressed in transfected cells; host or cells: CHO / CHO-K1 cells, membrane preparation; conditions: radioligand L-001533358;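 as to %Bound: 100% is tracer binding with DMSO alone and 0% is full displacement by a standard compound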
Description: Two small molecule tracers, the partial agonist [3H][…] and the AgoPAM [3H]25, are used to measure compound affinity at each site as described previously. Because of the allosteric coupling of the two sites and the nature of the assay, addition of a compound will either displace (binds to same site) or augment (binds to allosterically coupled site) radiotracer. Membranes expressing GPR40 were prepared from CHO cells stably expressing human GPR40. […] Sigma P8830) and were homogenized in 50 ml aliquots with a motor-driven glass Dounce homogenizer, 15 strokes at 1900 rpm on wet ice, repeating once. Homogenates were centrifuged at 2200 rpm for 10 min at 4°C. Supernatants were carefully removed and pooled. Homogenization and centrifugation were repeated until the debris pellet was translucent to maximize membrane recovery. Supernatants were then centrifuged at […] rpm for 20 min. at 4°C. […] Protein concentration was determined by Pierce BCA kit. […] The beads and membrane mixture is then vigorously mixed for 30 minutes at room temperature prior to addition to the assay. […] Next, 15 μl of the radioligand and 35 μl of the beads/membranes solution is added to each well. The assay plates are then sealed and incubated for 30 minutes at room temperature on an orbital shaker. The plates are allowed to settle for 16 hours and then counted on a TopCount scintillation counter (PE). […] Maximal % bound and IC50 are then determined for each test compound. 5 μg/well membrane together with 200 μg/well of PVT WGA SPA beads (GE #RPNG-0001) were suspended in a white 96 well plate with a final concentration of 50 μl/well in assay buffer (50 mM Tris, 10 mM MgCl2, and 2 mM EDTA). […] The plate is briefly mixed and incubated for 3-18 h at room temperature, before it is read on a MicroBeta plate counter (Perkin Elmer, MS, USA).

[3] = maximal % activity vs in-house partial agonist control

COc1ccc(F)c(-c2ccc(COc3cccc([C@@H](CC(=O)O)C4CC4)c3)cc2C2=CCCC2(C)C)c1 [AM-1638, reference compound]
Human GPR40 Receptor Activation (%) (human GPR40 [1]; dose 2.00E-06 M): 237%
Human GPR40 Receptor Activation (%) (human GPR40 [1]; dose 2.00E-07 M): 246%
Human GPR40 Receptor Activation (%) (human GPR40 [1]; dose 2.00E-08 M): 186%
Human GPR40 Receptor Activation (%) (human GPR40 [1]; dose 2.00E-09 M): 90%
Human GPR40 Receptor Activation (%) (human GPR40 [1]; dose 2.00E-10 M): 5.57%
Human GPR40 Receptor Activation (%) (human GPR40 [1]; dose 6.00E-07 M): 204%
Human GPR40 Receptor Activation (%) (human GPR40 [1]; dose 6.00E-08 M): 223%
Human GPR40 Receptor Activation (%) (human GPR40 [1]; dose 6.00E-09 M): 129%
Human GPR40 Receptor Activation (%) (human GPR40 [1]; dose 6.00E-10 M): 27%
Human GPR40 Receptor Activation (%) (human GPR40 [1]; dose 6.00E-11 M): -7%
HUMAN GPR40 Functional Assay %Act (human GPR40 [1]; individual replicates (n)): 245% and 240% and 164% and 211% and 215% and 163%
EC50 (human GPR40 [1]; individual replicates (n), read-out: HUMAN GPR40 Functional Assay EC50): 3.7 nM and 4.2 nM and 7.3 nM and 1.3 nM and 2.4 nM and 3.6 nM
Efficacy (% Activation), Human (human GPR40 [1]; [3]): (200%)
EC50 (human GPR40 [1]; mean ± SD, n = 2–20, IP accumulation, read-out: Potency [EC50, nM] ± SD, Human): 3.7 ± 1.9 nM
Mouse GPR40 Receptor Activation (%) (mouse GPR40; dose 1.00E-06 M): 394%
Mouse GPR40 Receptor Activation (%) (mouse GPR40; dose 1.50E-11 M): -7%
Mouse GPR40 Receptor Activation (%) (mouse GPR40; dose 1.56E-08 M): 156%
Mouse GPR40 Receptor Activation (%) (mouse GPR40; dose 2.44E-10 M): 2.81%
Mouse GPR40 Receptor Activation (%) (mouse GPR40; dose 2.50E-07 M): 318%
Mouse GPR40 Receptor Activation (%) (mouse GPR40; dose 3.91E-09 M): 67%
Mouse GPR40 Receptor Activation (%) (mouse GPR40; dose 4.00E-12 M): -8.43%
Mouse GPR40 Receptor Activation (%) (mouse GPR40; dose 6.10E-11 M): 3.63%
Mouse GPR40 Receptor Activation (%) (mouse GPR40; dose 6.25E-08 M): 254%
Mouse GPR40 Receptor Activation (%) (mouse GPR40; dose 9.77E-10 M): 19%
Mouse GPR40 Functional Assay %Act (mouse GPR40; individual replicates (n)): 406% and 397%
EC50 (mouse GPR40; individual replicates (n), read-out: Mouse GPR40 Functional Assay EC50): 44 nM and 28 nM
Efficacy (% Activation), Mouse (mouse GPR40; [3]): (402%)
EC50 (mouse GPR40; mean ± SD, n = 2–20, IP accumulation, read-out: Potency [EC50, nM] ± SD, Mouse): 36 ± 11 nM
Rat GPR40 Receptor Activation (%) (rat GPR40; dose 1.00E-06 M): 370%
Rat GPR40 Receptor Activation (%) (rat GPR40; dose 1.50E-11 M): -18%
Rat GPR40 Receptor Activation (%) (rat GPR40; dose 1.56E-08 M): 132%
Rat GPR40 Receptor Activation (%) (rat GPR40; dose 2.44E-10 M): 11%
Rat GPR40 Receptor Activation (%) (rat GPR40; dose 2.50E-07 M): 361%
Rat GPR40 Receptor Activation (%) (rat GPR40; dose 3.91E-09 M): 23%
Rat GPR40 Receptor Activation (%) (rat GPR40; dose 4.00E-12 M): -6%
Rat GPR40 Receptor Activation (%) (rat GPR40; dose 6.10E-11 M): 2%
Rat GPR40 Receptor Activation (%) (rat GPR40; dose 6.25E-08 M): 275%
Rat GPR40 Receptor Activation (%) (rat GPR40; dose 9.77E-10 M): 18%
Rat GPR40 Functional Assay %Act (rat GPR40; individual replicates (n)): 380% and 366%
EC50 (rat GPR40; individual replicates (n), read-out: Rat GPR40 Functional Assay EC50): 26 nM and 56 nM
Efficacy (% Activation), Rat (rat GPR40; [3]): (373%)
EC50 (rat GPR40; mean ± SD, n = 2–20, IP accumulation, read-out: Potency [EC50, nM] ± SD, Rat): 41 ± 21 nM
% Bound Normalized to 100 (human GPR40 [2]; dose 0.318285 nM): 102.20%
%Bound (human GPR40 [2]; dose 0.318285 nM): 108.18%
% Bound Normalized to 100 (human GPR40 [2]; dose 1.00578 nM): 103.34%
%Bound (human GPR40 [2]; dose 1.00578 nM): 109.31%
% Bound Normalized to 100 (human GPR40 [2]; dose 3.17827 nM): 130.10%
%Bound (human GPR40 [2]; dose 3.17827 nM): 136.07%
% Bound Normalized to 100 (human GPR40 [2]; dose 10.0433 nM): 137.50%
%Bound (human GPR40 [2]; dose 10.0433 nM): 143.47%
% Bound Normalized to 100 (human GPR40 [2]; dose 31.7369 nM): 182.19%
%Bound (human GPR40 [2]; dose 31.7369 nM): 188.17%
% Bound Normalized to 100 (human GPR40 [2]; dose 100.289 nM): 189.31%
%Bound (human GPR40 [2]; dose 100.289 nM): 195.29%
% Bound Normalized to 100 (human GPR40 [2]; dose 316.912 nM): 199.27%
%Bound (human GPR40 [2]; dose 316.912 nM): 205.25%
% Bound Normalized to 100 (human GPR40 [2]; dose 1001.44 nM): 201.84%
%Bound (human GPR40 [2]; dose 1001.44 nM): 207.81%
% Bound Normalized to 100 (human GPR40 [2]; dose 3164.56 nM): 204.40%
%Bound (human GPR40 [2]; dose 3164.56 nM): 210.37%
% Bound Normalized to 100 (human GPR40 [2]; dose 10000 nM): 189.59%
%Bound (human GPR40 [2]; dose 10000 nM): 195.57%
